System: C. carboxidivorans
Test: Product profiles of C. carboxidivorans cultures by GC-MSD
Type: cell-based
Settings: 500 and 1000 ppm; 54 hour cultures
Protocol: Product profiles were determined on the C. carboxidivorans cultures that grew in the presence of compound A. A GC-MSD was performed on 54 hour cultures and product distributions were calculated based on the resultant areas of the output (See FIG. 2). In cultures with no compound A addition, the distribution of C2, C4 and C6 acids and alcohols was similar in both samples. As the compound A concentration increased the amount of C2, particularly the alcohols, increased. […] Thus, such crotonate derivatives can effectively limit the amount of butyl impurity accumulation in the fermentation zone from heteroacetogens which can compete effectively in syngas cultures with homoacetogenic bacteria.

Structure (SMILES): CCOC(=O)C=C(C(F)(F)F)C(F)(F)F [Compound A, ethyl 4,4,4-trifluoro-3-(trifluoromethyl)crotonate]
- Product distribution of C2, C4 and C6 acids and alcohols: virtually all the product observed was the C2 alcohol

Reference: patent US20130071897A1, “METHOD FOR CONTROLLING UNDESIRABLE BYPRODUCTS FORMATION CAUSED BY CONTAMINATING ORGANISMS IN THE PRODUCTION OF ETHANOL FROM SYNGAS” (COSKATA, INC., priority 2011, published 2013)
